# According to ChEMBL document CHEMBL5523670, “Structure activity relationship and target prediction for ABX464 analogues in Caenorhabditis elegans” (Bioorg Med Chem, 2024):
# Assays:
# Caenorhabditis elegans [1] = assay: Anthelmintic activity against Caenorhabditis elegans N2 Bristol assessed as reduction in motility of young adults measured for 40 hrs; format: functional, organism-based; settings: for IC50: Caenorhabditis elegans, N2 Bristol, 40 h
# Caenorhabditis elegans [2] = assay: Anthelmintic activity against Caenorhabditis elegans N2 Bristol assessed as maximum inhibition of motility measured for 40 hrs; format: functional
# [3] = Mitotoxicity against human HepG2 cells assessed as reduction in cell viability measured for 48 hrs by crystal violet staining based analysis; format: toxicity
# [4] = Cytotoxicity against human HepG2 cells measured for 48 hrs by crystal violet staining based analysis; format: toxicity, cell-based
Structure (SMILES),IC50 (Caenorhabditis elegans [1]) [µM],further results
N#Cc1ccccc1Nc1ccc2cccc(Cl)c2n1,> 40,
FC(F)(F)c1ccc(Nc2ccc3cccc(Cl)c3n2)cc1C(F)(F)F,> 40,
COc1cccc(Nc2ccc3cccc(Cl)c3n2)c1,21,
N#Cc1ccc(Nc2ccc3cccc(Cl)c3n2)cc1,> 40,
Clc1ccccc1Nc1ccc2cccc(Cl)c2n1,> 40,
Clc1cccc2ccc(Nc3ccccc3-c3ccccc3)nc12,> 40,
Clc1ccc(Nc2ccc3cccc(Cl)c3n2)cc1,14,Imax (Caenorhabditis elegans [2]): 58%
Oc1ccc(Nc2ccc3cccc(Cl)c3n2)cc1,> 40,
FC(F)(F)c1ccc(Nc2ccc3cccc(Cl)c3n2)cc1,,CC50 at 48 h [3]: ≥ 40 µM; CC50 at 48 h [4]: ≥ 40 µM
Clc1cccc2ccc(Nc3ccc(-c4ccccc4)cc3)nc12,> 40,
Cc1ccc(Nc2ccc3cccc(Cl)c3n2)cc1,28,Imax (Caenorhabditis elegans [2]): 59%
FC(F)(F)c1ccc(Nc2ccc3cccc(Cl)c3n2)nc1,> 40,
COc1ccccc1Nc1ccc2cccc(Cl)c2n1,> 40,
Fc1ccc(Nc2ccc3cccc(Cl)c3n2)cc1,16,Imax (Caenorhabditis elegans [2]): 57%
CO/N=C1\C[C@]2(C[C@@H]3C[C@@H](C/C=C(\C)C[C@@H](C)/C=C/C=C4\CO[C@@H]5[C@H](O)C(C)=C[C@@H](C(=O)O3)[C@]45O)O2)O[C@H](/C(C)=C/C(C)C)[C@H]1C [MOXIDECTIN],0.1,
Clc1cccc2ccc(Nc3ccccc3)nc12,11,Imax (Caenorhabditis elegans [1]; time 40 hrs): 52%
Clc1cccc(Nc2ccc3cccc(Cl)c3n2)c1,11,CC50 at 48 h [3]: ≥ 40 µM; CC50 at 48 h [4]: ≥ 40 µM
Fc1ccccc1Nc1ccc2cccc(Cl)c2n1,> 40,
Clc1ccc(Nc2ccc3cccc(Cl)c3n2)cc1Cl,6.9,Imax (Caenorhabditis elegans [2]): 100%; CC50 at 48 h [3]: ≥ 40 µM; CC50 at 48 h [4]: ≥ 40 µM
C[C@](C#N)(COc1cc(C#N)ccc1C(F)(F)F)NC(=O)c1ccc(SC(F)(F)F)cc1 [MONEPANTEL],0.03,
Cc1cccc(Nc2ccc3cccc(Cl)c3n2)c1,22,
N#Cc1cccc(Nc2ccc3cccc(Cl)c3n2)c1,> 40,
FC(F)(F)c1ccc(Nc2ccc3cccc(Cl)c3n2)cn1,> 40,
Clc1cccc2ccc(Nc3cccc(-c4ccccc4)c3)nc12,> 40,
Fc1cccc(Nc2ccc3cccc(Cl)c3n2)c1,29,

# More lines, main results first:
IC50 (Caenorhabditis elegans [1]) [µM],Structure (SMILES),further results
> 40,FC(F)(F)Oc1ccccc1Nc1ccc2cccc(Cl)c2n1,
> 40,FC(F)(F)Oc1ccc(Nc2ccc3cccc(Cl)c3n2)cc1Cl,
5.9,FC(F)(F)Oc1ccc(Nc2ccc3cccc(Br)c3n2)cc1,Imax (Caenorhabditis elegans [2]): 67%
11,FC(F)(F)Oc1ccc(Nc2cc(Cl)c3ccccc3n2)cc1,
> 40,FC(F)(F)Oc1ccc(Nc2ccc3ccccc3n2)cc1,
> 40,FC(F)(F)c1ccccc1Nc1ccc2cccc(Cl)c2n1,
> 40,FC(F)(F)Oc1ccc(Oc2ccc3cccc(Cl)c3n2)cc1,
7,FC(F)(F)c1cc(Nc2ccc3cccc(Cl)c3n2)ccc1Cl,Imax (Caenorhabditis elegans [2]): 82%
18,Fc1cccc2ccc(Nc3ccc(OC(F)(F)F)cc3)nc12,Imax (Caenorhabditis elegans [2]): 69%
> 40,FC(F)(F)Oc1cccc(Nc2ccc3cccc(Cl)c3n2)c1,
7.2,FC(F)(F)Oc1ccc(Nc2ccc3cccc(Cl)c3n2)cc1 [OBEFAZIMOD],Imax (Caenorhabditis elegans [2]): 94%
7.1,FC(F)(F)Oc1ccc(Nc2ccc3c(Cl)cccc3n2)cc1,CC50 at 48 h [3]: ≥ 40 µM; CC50 at 48 h [4]: ≥ 40 µM
> 40,FC(F)(F)Oc1ccc(Nc2nc3ccccc3cc2Cl)cc1,
> 40,COc1ccc(Nc2ccc3cccc(Cl)c3n2)cc1,
> 40,FC(F)(F)Oc1ccc(Nc2ccc3cccc(-c4ccccc4)c3n2)cc1,
> 40,FC(F)(F)Oc1ccc(Nc2ccc3cc(Cl)ccc3n2)cc1,
> 40,Cc1cccc2ccc(Nc3ccc(OC(F)(F)F)cc3)nc12,
> 40,COc1cccc2ccc(Nc3ccc(OC(F)(F)F)cc3)nc12,
3.2,FC(F)(F)c1cccc(Nc2ccc3cccc(Cl)c3n2)c1,Imax (Caenorhabditis elegans [2]): 55%
> 40,N#Cc1cccc2ccc(Nc3ccc(OC(F)(F)F)cc3)nc12,
78,CN(c1ccc(OC(F)(F)F)cc1)c1ccc2cccc(Cl)c2n1,Imax (Caenorhabditis elegans [2]): 81%; CC50 at 48 h [3]: ≥ 40 µM; CC50 at 48 h [4]: ≥ 40 µM
> 40,FC(F)(F)Oc1ccc(Nc2ccccn2)cc1,
